According to PMC7897990, “TriTOX: A novel Trichomonas vaginalis assay platform for high-throughput screening of compound libraries” (International Journal for Parasitology: Drugs and Drug …, 2021):
Read-outs that look alike come from different tables or passages of the source. Starred links: 1 amine or outer side, 2 acyl side, 3 side chain; linkers in the order of their positions; H or OH if unused. Positions of bridges follow the written chain, without caps; N, C: chain ends. Non-standard residues stand in square brackets, D forms with d. Residues, ends and D or L forms follow the SMILES beside them. *: point of attachment. hTyr(3S-OH,4S-OH,3'-OSO3H) = N[C@H](C(=O)O)[C@H](O)[C@@H](O)c1ccc(O)c(OS(=O)(=O)O)c1; Orn(4R-OH,5R-OH) = O=C([C@H](C[C@@H](O)[C@@H](O)N[*:3])N[*:1])[*:2]; Pro(3S-OH,4S-Me) = C[C@H]1CN[C@H](C(=O)O)[C@H]1O; Gln(3R-OH) = NC(=O)C[C@@H](O)[C@H](N)C(=O)O; Palmitoyl = CCCCCCCCCCCCCCCC(=O)*; Hyp = O=C(O)[C@@H]1C[C@@H](O)CN1

Tests used:
[1] = system: nontumorigenic neonatal foreskin fibroblast (NFF) cell line
[2] = system: Trichomonas vaginalis G3 trophozoites
[3] = NFF_NS1 screen at 5 µg/mL, NFF cells
[4] = parasite screen at 1 µg/mL, replicate 1
[5] = parasite screen at 1 µg/mL, replicate 2
[6] = HTS, parasite screen at 1 µg/mL, replicate 1
[7] = HTS, parasite screen at 1 µg/mL, replicate 1, raw absorbance
[8] = HTS, parasite screen at 1 µg/mL, replicate 2
[9] = HTS, parasite screen at 1 µg/mL, replicate 2, raw absorbance

Row | Structure (SMILES) | NFF_Activity [1, 3] | T.vaginalis_%inb_Rep1 [2, 4] [%] | T.vaginalis_%inb_Rep2 [2, 5] [%] | NFF_Activity ([1]; NFF_NS1 screen at 5 µg/mL) | T.vaginalis_%inb_Rep1 [2, 6] [%] | T.vaginalis_Absorbance_Rep1 [2, 7] | T.vaginalis_%inb_Rep2 [2, 8] [%] | T.vaginalis_Absorbance_Rep2 [2, 9] | NFF_Activity [1] | T.vaginalis_%inb_Rep1 [2] [%] | T.vaginalis_%inb_Rep2 [2] [%] | T.vaginalis_Absorbance_Rep1 [2] | T.vaginalis_Absorbance_Rep2 [2]
1 | CC(=O)OC[C@]12C[C@H](OC(=O)CC(C)C)C(C)=C[C@H]1O[C@@H]1[C@H](O)[C@@H](OC(C)=O)[C@@]2(C)[C@]12CO2 [BIA-T1933] | I (otherwise these were reported as inactive (I)) | 5.61 | 2.80 |  |  |  |  |  |  |  |  |  | 
2 | CC1=C[C@H]2O[C@@H]3[C@H](O)[C@@H](O)[C@](C)([C@@]2(CO)C[C@@H]1OC(=O)CC(C)C)[C@]31CO1 [BIA-T1934] | I (otherwise these were reported as inactive (I)) | 10.70 | 12.37 |  |  |  |  |  |  |  |  |  | 
3 | CO[C@@H]1[C@@H](O)[C@@H](O)[C@@H](Oc2ccc3c(O)c(NC(=O)c4ccc(O)c(CC=C(C)C)c4)c(=O)oc3c2C)OC1(C)C [Descarbamylnovobiocin] |  |  |  | I (otherwise these were reported as inactive (I)) | 9.75 | 0.89 | 9.69 | 0.754 |  |  |  |  | 
4 | COc1c(O)c2c(=O)cc3c4c5c(cc(=O)c6c(O)c(OC)c(C[C@H](C)OC(C)=O)c(c(c1C[C@H](C)OC(C)=O)c24)c65)OCO3 [Diacetylcercosporin] |  |  |  | A (active (A) compounds having >25% inhibitory activity) | 12.65 | 0.944 | 14.53 | 0.821 |  |  |  |  | 
5 | CCCCCCCCCCCC(=O)N[C@H]1CCOC1=O [Dodecanoyl-L-homoserine lactone] |  |  |  | I (otherwise these were reported as inactive (I)) | 9.75 | 0.89 | 12.87 | 0.798 |  |  |  |  | 
6 | COC12c3c(C)cc(O)c4c(=O)occ(c34)C(=O)C1C13COC(=O)c4c(O)cc(C)c(c41)C(=O)C2C3OC(C)=O (centres unmarked) [Duclauxin] |  |  |  | I (otherwise these were reported as inactive (I)) | 14.59 | 0.98 | 17.79 | 0.866 |  |  |  |  | 
7 | CC[C@H](C)[C@H]1O[C@]2(C=C[C@@H]1C)C[C@@H]1C[C@@H](C/C=C(\C)[C@@H](O[C@H]3C[C@H](OC)[C@@H](O[C@H]4C[C@H](OC)[C@H](NC)[C@H](C)O4)[C@H](C)O3)[C@@H](C)/C=C/C=C3\CO[C@@H]4[C@H](O)C(C)=C[C@@H](C(=O)O1)[C@]34O)O2 [Emamectin B1a] |  |  |  | A (active (A) compounds having >25% inhibitory activity) | 15.19 | 0.991 | 5.71 | 0.699 |  |  |  |  | 
8 | C/C=C/[C@@H]1C=C[C@@H]2C[C@H](C)CC[C@H]2[C@]1(C)/C(O)=C1/C(=O)[C@@H](CO)N(C)C1=O [Epiequisetin] |  |  |  | I (otherwise these were reported as inactive (I)) | 11.85 | 0.929 | 4.34 | 0.68 |  |  |  |  | 
9 | CC(=O)O[C@@H]1[C@@H]2O[C@H]2[C@@](C)(O)C(=O)[C@@H](C)C/C=C\[C@H]2[C@H](O)C(C)=C(C)[C@H]3[C@H](Cc4ccccc4)NC(=O)[C@@]123 [Epoxycytochalasin C, 19,20-] |  |  |  | I (otherwise these were reported as inactive (I)) | 12.33 | 0.938 | 16.20 | 0.844 |  |  |  |  | 
10 | C=C1[C@@H](C)[C@H]2[C@H](Cc3ccccc3)NC(=O)[C@]23[C@H](OC(C)=O)[C@@H]2O[C@H]2[C@@](C)(O)C(=O)[C@@H](C)C/C=C\[C@H]3[C@@H]1O [Epoxycytochalasin D, 19,20-] |  |  |  | I (otherwise these were reported as inactive (I)) | 12.71 | 0.945 | 12.22 | 0.789 |  |  |  |  | 
11 | CC[C@H](C)[C@H]1O[C@]2(C=C[C@@H]1C)C[C@@H]1C[C@@H](C/C=C(\C)[C@@H](O[C@H]3C[C@H](OC)[C@@H](O[C@H]4C[C@H](OC)[C@H](NC(C)=O)[C@H](C)O4)[C@H](C)O3)[C@@H](C)/C=C/C=C3\CO[C@@H]4[C@H](O)C(C)=C[C@@H](C(=O)O1)[C@]34O)O2 [Eprinomectin B1a] |  |  |  | I (otherwise these were reported as inactive (I)) | 13.46 | 0.959 | 14.17 | 0.816 |  |  |  |  | 
12 | CO[C@H]1C[C@H](O[C@H]2[C@H](C)O[C@@H](O[C@@H]3/C(C)=C/C[C@@H]4C[C@@H](C[C@]5(C=C[C@H](C)[C@@H](C(C)C)O5)O4)OC(=O)[C@@H]4C=C(C)[C@@H](O)[C@H]5OC/C(=C\C=C\[C@@H]3C)[C@]54O)C[C@@H]2OC)O[C@@H](C)[C@H]1NC(C)=O [Eprinomectin B1b] |  |  |  |  |  |  |  |  | I (key: active (A) compounds having >25% inhibitory activity; otherwise these were reported as inactive (I)) | 14.00 | 14.75 | 0.969 | 0.824
13 | C/C=C/[C@@H]1C=C[C@@H]2C[C@H](C)CC[C@H]2[C@]1(C)/C(O)=C1/C(=O)[C@H](CO)N(C)C1=O [Equisetin] |  |  |  | I (otherwise these were reported as inactive (I)) | 12.17 | 0.942 | 15.65 | 0.879 |  |  |  |  | 
14 | CC[C@H]1OC(=O)[C@H](C)[C@@H](O[C@H]2C[C@@](C)(OC)[C@@H](O)[C@H](C)O2)[C@H](C)[C@@H](O[C@@H]2O[C@H](C)C[C@H]([N+](C)(C)[O-])[C@H]2O)[C@](C)(O)C[C@@H](C)C(=O)[C@H](C)[C@@H](O)[C@]1(C)O [Erythromycin A N-oxide] |  |  |  | I (otherwise these were reported as inactive (I)) | 6.03 | 0.821 | 9.83 | 0.756 |  |  |  |  | 
15 | CC[C@H]1OC(=O)[C@H](C)[C@@H](O[C@H]2C[C@@](C)(OC)[C@@H](O)[C@H](C)O2)[C@H](C)[C@@H](O[C@@H]2O[C@H](C)C[C@H](N(C)C)[C@H]2O)[C@@]2(C)CC(C)=C(O2)[C@H](C)[C@@H](O)[C@]1(C)O [Erythromycin A enol ether] |  |  |  | I (otherwise these were reported as inactive (I)) | 5.17 | 0.805 | 18.87 | 0.881 |  |  |  |  | 
16 | CC[C@H]1OC(=O)[C@H](C)[C@@H](O[C@H]2C[C@@](C)(OC)[C@@H](O)[C@H](C)O2)[C@H](C)[C@@H](O[C@@H]2O[C@H](C)C[C@H](N(C)C)[C@H]2O)[C@](C)(O)C[C@@H](C)C(=NO)[C@H](C)[C@@H](O)[C@]1(C)O [Erythromycin A oxime] |  |  |  | I (otherwise these were reported as inactive (I)) | 3.82 | 0.78 | 4.19 | 0.678 |  |  |  |  | 
17 | CC[C@H]1OC(=O)[C@H](C)[C@@H](O[C@H]2C[C@@](C)(OC)[C@@H](O)[C@H](C)O2)[C@H](C)[C@@H](O[C@@H]2O[C@H](C)C[C@H](N(C)C)[C@H]2O)[C@](C)(O)C[C@@H](C)C(=O)[C@H](C)[C@@H](O)[C@]1(C)O [Erythromycin A] |  |  |  | I (otherwise these were reported as inactive (I)) | 5.27 | 0.806 | 3.78 | 0.694 |  |  |  |  | 
18 | CC[C@H]1OC(=O)[C@H](C)[C@@H](O[C@H]2C[C@@](C)(O)[C@@H](O)[C@H](C)O2)[C@H](C)[C@@H](O[C@@H]2O[C@H](C)C[C@H](N(C)C)[C@H]2O)[C@](C)(O)C[C@@H](C)C(=O)[C@H](C)[C@@H](O)[C@]1(C)O [Erythromycin C] |  |  |  | I (otherwise these were reported as inactive (I)) | 5.17 | 0.805 | 6.87 | 0.715 |  |  |  |  | 
19 | Cc1cc(=O)c(O)cc2c1C[C@@H]1CC(C)(C)/C=C/C[C@@]3(C)Oc4cc(O)c(=O)cc(C)c4C[C@@H]3C[C@@H](O)[C@]1(C)O2 [Eupenifeldin] |  |  |  | A (active (A) compounds having >25% inhibitory activity) | 14.05 | 0.97 | 13.74 | 0.81 |  |  |  |  | 
20 | C[C@@H](O)[C@@H]1NC(=O)[C@@H](N)C[C@@H](O)[C@@H](O)NC(=O)[C@@H]2[C@@H](O)[C@@H](C)CN2C(=O)[C@H]([C@H](O)CC(N)=O)NC(=O)[C@H]([C@H](O)[C@@H](O)c2ccc(O)c(OS(=O)(=O)O)c2)NC(=O)[C@@H]2C[C@@H](O)CN2C1=O [FR 179642] (H-[Orn(4R-OH,5R-OH)]T[Hyp][hTyr(3S-OH,4S-OH,3'-OSO3H)][Gln(3R-OH)][Pro(3S-OH,4S-Me)]; lactam 1-C) |  |  |  | I (otherwise these were reported as inactive (I)) | 12.98 | 0.95 | 14.17 | 0.816 |  |  |  |  | 
21 | CCCCCCCCCCCCCCCC(=O)N[C@H]1C[C@@H](O)[C@@H](O)NC(=O)[C@@H]2[C@@H](O)[C@@H](C)CN2C(=O)[C@H]([C@H](O)CC(N)=O)NC(=O)[C@H]([C@H](O)[C@@H](O)c2ccc(O)c(OS(=O)(=O)O)c2)NC(=O)[C@@H]2C[C@@H](O)CN2C(=O)[C@H]([C@@H](C)O)NC1=O [FR 901379] (Palmitoyl-[Orn(4R-OH,5R-OH)]T[Hyp][hTyr(3S-OH,4S-OH,3'-OSO3H)][Gln(3R-OH)][Pro(3S-OH,4S-Me)]; lactam 1-C) |  |  |  | I (otherwise these were reported as inactive (I)) | 12.55 | 0.942 | 13.45 | 0.806 |  |  |  |  | 
